Measurements published in US11702428B2, “Chemical compounds as inhibitors of interleukin-1 activity” (Genentech, Inc., priority 2017, dated 2023).
Where two headings read alike, the source gives them in different places.

Experiments:
[1] = system: LPS and nigericin stimulated cells; test: cells; type: cell-based; settings: for IC50: Homo sapiens, read-out: CTG protective IC50
Protocol: Viability of compound treated cells is measured using CellTiter-Glo® assay (Promega, Madison, Wis.) that measures the ATP content of cells which is proportional to the number of live cells within a well. This is a counter-screen to establish that the reduction of IL-1β levels in LPS and nigericin stimulated and compound treated cells is not due to cytotoxicity, but rather through the inhibition of the inflammasome pathway. Compounds inhibiting NRLP3 inflammasome activation ultimately increase the viability of LPS and nigericin stimulated cells by blocking NLRP3 mediated pyroptosis that would otherwise lead to cell lysis.

NLRP3 inflammasome = NLRP3 inflammasome (Homo sapiens, UniProt Q96P20); test: NLRP3 inflammasome activation assay in PBMCs (LPS priming, nigericin), IL-1β by ELISA; type: cell-based; set-up: Human peripheral blood mononuclear cells (PBMCs); host or cells: primary human PBMCs from healthy donors
Protocol: Some of the following assays were used to determine the inhibitory activity of the compounds on the NLRP3 inflammasome using a common inflammasome activation stimuli-nigericin.
Human peripheral blood mononuclear cells (PBMCs), consisting of lymphocytes (T, B and NK cells), monocytes and dendritic cells, were freshly isolated from human peripheral blood from healthy donors. Cells were obtained through an IRB approved donor program by iXCells Biotechnologies where all the donors were tested for bacterial and viral infections. Cells were purified from peripheral blood using ficoll gradient centrifugation.
Cells were then stimulated with 10 uM Nigericin (Sigma Aldrich; InvivoGen) for 1.5 h. Plates were centrifuged at 1,500 rpm for 3 minutes to pellet cells and supernatant was transferred into new plates for subsequent experiments.
For ELISA assays cells were seeded into 96-well plates. Post study, supernatants were removed and the levels of mature IL-1β, IL-18 and TNFα (Quantikine ELISA, R&D systems) were measured in cell conditioned media by ELISA according to manufacturer's instructions.

[2] = LPS and nigericin stimulated cells, CellTiter-Glo
[3] = LPS, nigericin, read-out: PBMC IL-1β IC50
[4] = LPS 100 ng/mL 3 h, nigericin 10 uM 1.5 h, read-out: IC50 IL-1β

Chain of NLRP3 inflammasome (Q96P20 whole entry): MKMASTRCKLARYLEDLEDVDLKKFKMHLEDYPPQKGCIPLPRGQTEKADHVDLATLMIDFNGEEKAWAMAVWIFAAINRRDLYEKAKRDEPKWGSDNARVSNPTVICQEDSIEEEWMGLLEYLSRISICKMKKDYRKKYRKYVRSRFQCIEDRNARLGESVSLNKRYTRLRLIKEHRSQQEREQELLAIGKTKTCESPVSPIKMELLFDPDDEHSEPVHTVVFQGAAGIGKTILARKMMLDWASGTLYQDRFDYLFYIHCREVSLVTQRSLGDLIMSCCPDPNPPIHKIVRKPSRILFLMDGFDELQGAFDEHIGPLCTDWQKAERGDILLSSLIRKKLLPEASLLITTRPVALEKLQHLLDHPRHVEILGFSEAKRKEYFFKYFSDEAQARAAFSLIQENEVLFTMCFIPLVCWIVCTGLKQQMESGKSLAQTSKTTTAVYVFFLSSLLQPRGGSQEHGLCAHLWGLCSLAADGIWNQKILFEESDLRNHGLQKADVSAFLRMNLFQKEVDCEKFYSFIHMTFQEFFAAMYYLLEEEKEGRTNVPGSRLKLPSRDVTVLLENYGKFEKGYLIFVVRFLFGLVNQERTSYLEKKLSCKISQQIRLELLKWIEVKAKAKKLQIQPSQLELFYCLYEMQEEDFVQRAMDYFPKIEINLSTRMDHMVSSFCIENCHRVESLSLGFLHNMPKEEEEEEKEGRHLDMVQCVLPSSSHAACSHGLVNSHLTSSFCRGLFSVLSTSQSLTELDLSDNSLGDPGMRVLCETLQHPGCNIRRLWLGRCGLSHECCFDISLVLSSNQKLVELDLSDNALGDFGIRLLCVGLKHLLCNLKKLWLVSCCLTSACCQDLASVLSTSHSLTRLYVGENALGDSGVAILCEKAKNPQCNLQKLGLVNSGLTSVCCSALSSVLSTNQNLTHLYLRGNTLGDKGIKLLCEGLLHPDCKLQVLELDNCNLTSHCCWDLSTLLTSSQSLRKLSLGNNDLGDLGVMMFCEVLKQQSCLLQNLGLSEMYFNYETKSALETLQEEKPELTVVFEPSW

Structure (SMILES)	IC50 [1, 2] [nM]	IC50 (NLRP3 inflammasome; [3]) [nM]	also measured
O=C(Nc1c2c(cc3c1CCC3)CCC2)NS(=O)(=O)c1cnn2c1C(F)CCC2 (stereo not shown)	< 100	100 to 1000	
O=C(Nc1c2c(cc3c1CCC3)CCC2)NS(=O)(=O)c1cc2n(n1)CCNC2=O		100 to 1000	
CN1CCn2nc(S(=O)(=O)NC(=O)Nc3c4c(cc5c3CCC5)CCC4)cc2C1=O		1000 to 10000	
O=C(Nc1c2c(cc3c1CCC3)CCC2)NS(=O)(=O)c1cnn2c1OCC2	< 100	100 to 1000	
NC1COc2c(S(=O)(=O)NC(=O)Nc3c4c(cc5c3CCC5)CCC4)cnn2C1 (stereo not shown)	< 100	100 to 1000	
O=C(Nc1c2c(cc3c1CCC3)CCC2)NS(=O)(=O)c1cnn2c1C(F)(F)CCC2	> 10000	100 to 1000	
CC1(C)COc2c(S(=O)(=O)NC(=O)Nc3c4c(c(Cl)c5c3CCC5)CCC4)cnn2C1		100 to 1000	
Cc1ccc(S(=O)(=O)N2CC3(COc4c(S(=O)(=O)NC(=O)Nc5c6c(cc7c5CCC7)CCC6)cnn4C3)C2)cc1	100 to 1000	1000 to 10000	
O=C(Nc1c2c(cc3c1CCC3)CCC2)NS(=O)(=O)c1cnn2c1OC[C@@H](O)C2	< 100	100 to 1000	
CCNC1COc2c(S(=O)(=O)NC(=O)Nc3c4c(cc5c3CCC5)CCC4)cnn2C1 (stereo not shown)	< 100	< 100	
CN(C)[C@@H]1COc2c(S(=O)(=O)NC(=O)Nc3c4c(cc5c3CCC5)CCC4)cnn2C1			IC50 [1]: > 10000 nM
CCOC1COc2c(S(=O)(=O)NC(=O)Nc3c4c(cc5c3CCC5)CCC4)cnn2C1 (stereo not shown)	< 100	< 100	
CC(C)OC1COc2c(S(=O)(=O)NC(=O)Nc3c4c(cc5c3CCC5)CCC4)cnn2C1 (stereo not shown)	< 100	100 to 1000	
C[C@@H]1COc2c(S(=O)(=O)NC(=O)Nc3c4c(cc5c3CCC5)CCC4)cnn2C1	< 100	< 100	
O=C(Nc1c2c(cc3c1CCC3)CCC2)NS(=O)(=O)c1cc2n(n1)CCNC2	< 100	100 to 1000	
COCC1COc2c(S(=O)(=O)NC(=O)Nc3c4c(cc5c3CCC5)CCC4)cnn2C1 (stereo not shown)	< 100	100 to 1000	
CN1CCn2nc(S(=O)(=O)NC(=O)Nc3c4c(cc5c3CCC5)CCC4)cc2C1	100 to 1000	1000 to 10000	
O=C(Nc1c2c(cc3c1CCC3)CCC2)NS(=O)(=O)c1ncn2c1OCCC2	100 to 1000	100 to 1000	
CCO[C@@H]1COc2c(S(=O)(=O)NC(=O)Nc3c4c(cc5c3CCC5)CCC4)cnn2C1	100 to 1000	100 to 1000	
CC(C)(C)OC(=O)NCC1COc2c(S(=O)(=O)NC(=O)Nc3c4c(cc5c3CCC5)CCC4)cnn2C1 (stereo not shown)	< 100	< 100	
O=C(Nc1c2c(cc3c1CCC3)CCC2)NS(=O)(=O)c1cnn2c1OCC(N1CCC1)C2 (stereo not shown)	< 100	< 100	
CCN[C@@H]1COc2c(S(=O)(=O)NC(=O)Nc3c4c(cc5c3CCC5)CCC4)cnn2C1	1000 to 10000	1000 to 10000	
CN(CC1COc2c(S(=O)(=O)NC(=O)Nc3c4c(cc5c3CCC5)CCC4)cnn2C1)C(=O)OC(C)(C)C (stereo not shown)	100 to 1000	100 to 1000	

Structure (SMILES)	IC50 [1, 2] [nM]	IC50 (NLRP3 inflammasome; [3]) [nM]	also measured
CNCC1COc2c(S(=O)(=O)NC(=O)Nc3c4c(cc5c3CCC5)CCC4)cnn2C1 (stereo not shown)	1000 to 10000	1000 to 10000	
CN(C)CC1COc2c(S(=O)(=O)NC(=O)Nc3c4c(cc5c3CCC5)CCC4)cnn2C1 (stereo not shown)			IC50 [1]: 1000 to 10000 nM
COC1(C)COc2c(S(=O)(=O)NC(=O)Nc3c4c(cc5c3CCC5)CCC4)cnn2C1 (stereo not shown)	100 to 1000	100 to 1000	
CC[C@@H]1COc2c(S(=O)(=O)NC(=O)Nc3c4c(cc5c3CCC5)CCC4)cnn2C1	100 to 1000	100 to 1000	
CC[C@H]1COc2c(S(=O)(=O)NC(=O)Nc3c4c(cc5c3CCC5)CCC4)cnn2C1	< 100	< 100	
CC(C)c1cc(C#N)cc(C(C)C)c1NC(=O)NS(=O)(=O)c1cnn2c1OCCC2	< 100	100 to 1000	
O=C(Nc1c2c(cc3c1CCC3)CCC2)NS(=O)(=O)c1cnn2c1OCC(N1CC(F)C1)C2 (stereo not shown)	< 100	100 to 1000	
CN1CCn2ncc(S(=O)(=O)NC(=O)Nc3c4c(cc5c3CCC5)CCC4)c2C1=O			IC50 [1]: 1000 to 10000 nM
CC1(O)COc2c(S(=O)(=O)NC(=O)Nc3c4c(cc5c3CCC5)CCC4)cnn2C1 (stereo not shown)	< 100	100 to 1000	
CO[C@H]1COc2c(S(=O)(=O)NC(=O)Nc3c(C(C)C)cc(Cl)cc3C(C)C)cnn2C1	100 to 1000	100 to 1000	
CN[C@@H]1COc2c(S(=O)(=O)NC(=O)Nc3c4c(cc5c3CCC5)CCC4)cnn2C1			IC50 [1]: 100 to 1000 nM
O=C(Nc1c(C2CC2)cc(Cl)cc1C1CC1)NS(=O)(=O)c1cnn2c1OCCC2	100 to 1000	100 to 1000	
Cc1ccc2cccnc2c1NC(=O)NS(=O)(=O)c1cnn2c1OCCC2			CTG protective IC50 [1, 2]: No Curve; PBMC IL-1β IC50 (NLRP3 inflammasome; LPS, nigericin): No Curve
COc1ccc2cccnc2c1NC(=O)NS(=O)(=O)c1cnn2c1OCCC2			PBMC IL-1β IC50 (NLRP3 inflammasome; LPS, nigericin): No Curve
COC1CN(C2COc3c(S(=O)(=O)NC(=O)Nc4c5c(cc6c4CCC6)CCC5)cnn3C2)C1 (stereo not shown)			IC50 [1]: < 100 nM
O=C(Nc1cc(C2CC2)cc(C2CC2)c1)NS(=O)(=O)c1cnn2c1OCCC2	< 100	100 to 1000	
C#CCOC1COc2c(S(=O)(=O)NC(=O)Nc3c4c(cc5c3CCC5)CCC4)cnn2C1 (stereo not shown)	< 100	< 100	
CC1(C)Cc2cccc(NC(=O)NS(=O)(=O)c3cnn4c3OCCC4)c2O1		> 10000	
O=C(Nc1c2c(c(F)c3c1CCC3)CCC2)NS(=O)(=O)c1cnn2c1OCCC2	< 100	< 100	
COC1CN([C@@H]2COc3c(S(=O)(=O)NC(=O)Nc4c5c(cc6c4CCC6)CCC5)cnn3C2)C1			IC50 [1]: < 100 nM
Cc1nn2c(c1S(=O)(=O)NC(=O)Nc1c3c(cc4c1CCC4)CCC3)OCCC2	< 100	100 to 1000	
O=C(Nc1c(C2CC2)cc(Cl)c2c1CCC2)NS(=O)(=O)c1cnn2c1OCCC2	1000 to 10000	100 to 1000	
CC(=O)NCC1COc2c(S(=O)(=O)NC(=O)Nc3c4c(cc5c3CCC5)CCC4)cnn2C1 (stereo not shown)	< 100	< 100	

Structure (SMILES)	IC50 [1, 2] [nM]	IC50 (NLRP3 inflammasome; [3]) [nM]	also measured
CO[C@H]1COc2c(S(=O)(=O)NC(=O)Nc3c4c(c(F)c5c3CCC5)CCC4)cnn2C1		< 100	
CO[C@H]1COc2c(S(=O)(=O)NC(=O)Nc3c(C(C)C)cc(F)cc3C(C)C)cnn2C1	< 100	< 100	
CN[C@H]1COc2c(S(=O)(=O)NC(=O)Nc3c(C(C)C)cc(F)cc3C(C)C)cnn2C1		< 100	
O=C(Nc1c2c(cc3c1CCC3)CCC2)NS(=O)(=O)c1cnn2c1OCC(CNC(=O)C(F)(F)F)C2 (stereo not shown)		< 100	
NCC1COc2c(S(=O)(=O)NC(=O)Nc3c4c(cc5c3CCC5)CCC4)cnn2C1 (stereo not shown)		100 to 1000	
CC(C)c1cc(F)cc(C(C)C)c1NC(=O)NS(=O)(=O)c1cnn2c1OCCC2	100 to 1000	100 to 1000	
O=S(=O)(NC(=S)Nc1c2c(cc3c1CCC3)CCC2)c1cnn2c1OCCC2 [drawing 494]			IC50 (NLRP3 inflammasome; [4]): 1000 to 10000 nM
O=C(Nc1c2c(cc3c1CCC3)CCC2)NS(=O)(=O)c1cnn2c1OCC1(COC1)C2 [drawing 496]			IC50 (NLRP3 inflammasome; [4]): 100 to 1000 nM
CC(C)c1cccc(C(C)C)c1NC(=O)NS(=O)(=O)c1cnn2c1OCCC2 [drawing 497]			IC50 (NLRP3 inflammasome; [4]): 1000 to 10000 nM
CC(C)c1cc(Cl)cc(C(C)C)c1NC(=O)NS(=O)(=O)c1cnn2c1OCCC2 [drawing 498]			IC50 (NLRP3 inflammasome; [4]): 100 to 1000 nM
CC1(C)COc2c(S(=O)(=O)NC(=O)Nc3c4c(cc5c3CCC5)CCC4)cnn2C1 [drawing 499]			IC50 (NLRP3 inflammasome; [4]): < 100 nM
O=C(Nc1c2c(cc3c1CCC3)CCC2)NS(=O)(=O)c1cnn2c1OCC(O)C2 (stereo not shown) [drawing 500]			IC50 (NLRP3 inflammasome; [4]): < 100 nM
O=C(Nc1c2c(cc3c1CCC3)CCC2)NS(=O)(=O)c1cnn2c1OCCCC2 [drawing 501]			IC50 (NLRP3 inflammasome; [4]): 100 to 1000 nM
CC1CCOc2c(S(=O)(=O)NC(=O)Nc3c4c(cc5c3CCC5)CCC4)cnn21 (stereo not shown) [drawing 502]			IC50 (NLRP3 inflammasome; [4]): 100 to 1000 nM
O=C(Nc1c2c(cc3c1CCC3)CCC2)NS(=O)(=O)c1cnn2c1OCC(F)C2 (stereo not shown) [drawing 503]			IC50 (NLRP3 inflammasome; [4]): 100 to 1000 nM
COC1COc2c(S(=O)(=O)NC(=O)Nc3c4c(cc5c3CCC5)CCC4)cnn2C1 (stereo not shown) [drawing 504]			IC50 (NLRP3 inflammasome; [4]): < 100 nM
CC1CCn2ncc(S(=O)(=O)NC(=O)Nc3c4c(cc5c3CCC5)CCC4)c2O1 (stereo not shown) [drawing 505]			IC50 (NLRP3 inflammasome; [4]): < 100 nM
O=C(Nc1c2c(c(Cl)c3c1CCC3)CCC2)NS(=O)(=O)c1cnn2c1OCCC2 [drawing 506]			IC50 (NLRP3 inflammasome; [4]): < 100 nM
O=C(Nc1c2c(cc3c1CCC3)CCC2)NS(=O)(=O)c1cnn2c1OCC1(COC1)C2 [drawing 510]		100 to 1000	
CC(C)c1cccc(C(C)C)c1NC(=O)NS(=O)(=O)c1cnn2c1OCCC2 [drawing 511]		1000 to 10000	
CC(C)c1cc(Cl)cc(C(C)C)c1NC(=O)NS(=O)(=O)c1cnn2c1OCCC2 [drawing 512]		100 to 1000	
O=C(Nc1c2c(c(Cl)c3c1CCC3)CCC2)NS(=O)(=O)c1cnn2c1OCCC2 [drawing 520]		< 100	
COC1CN([C@H]2COc3c(S(=O)(=O)NC(=O)Nc4c5c(cc6c4CCC6)CCC5)cnn3C2)C1 [drawing 580]			IC50 [1]: < 100 nM
